Experimental data published in patent US7785639B2, “Composition for treating cancer cells and preparation method for the same” (Kaohsiung Medical University, priority 2005, dated 2010).
Converted amounts (≈) assume the structure as drawn.

Tests used:
[1] = tested on: Hep G2; assay: MTT cytotoxic testing, Hep G2; type: cell-based; conditions: average ± standard deviation (n = 2); for IC50 Hep G2: human liver cancer cell line; for IC50: HepG2, human liver cancer cell line
[2] = tested on: Hep 3B; assay: MTT cytotoxic testing, Hep 3B; type: cell-based; conditions: human liver cancer cell line, average ± standard deviation (n = 2); for IC50: Hep3B
[3] = tested on: MCF-7; assay: MTT cytotoxic testing, MCF-7; type: cell-based; conditions: average ± standard deviation (n = 2); for IC50 MCF-7: human breast cancer cell line; for IC50: MCF7, human breast cancer cell line
[4] = tested on: A549; assay: MTT cytotoxic testing, A549; type: cell-based; conditions: average ± standard deviation (n = 2); for IC50 A549: human lung cancer cell line; for IC50: A549, human lung cancer cell line
[5] = tested on: MDA-MB-231; assay: MTT cytotoxic testing, MDA-MB-231; type: cell-based; conditions: average ± standard deviation (n = 2); for IC50 MDA-MB-231: human breast cancer cell line; for IC50: MDA-MB-231, human breast cancer cell line
[6] = tested on: five human cancer cell lines
[7] = tested on: MCF-10A
[8] = tested on: MCF-10A; assay: cells; conditions: Homo sapiens, read-out: IC50 MCF-10A

| Structure (SMILES) | IC50 Hep G2 [1] | IC50 Hep 3B [2] | IC50 MCF-7 [3] | IC50 A549 [4] | IC50 MDA-MB-231 [5] | cytotoxic activities on cancer cells [6] | IC50 [1] | IC50 [2] | IC50 [3] | IC50 [4] | IC50 [5] | cytotoxicity to normal human breast epidermal cells [7] | IC50 [8] |
| --- | --- | --- | --- | --- | --- | --- | --- | --- | --- | --- | --- | --- | --- |
| O=c1cc(C2(O)C=CC(O)C=C2)oc2cc(O)cc(O)c12 (stereo not drawn) [Compound C, Protoapigenin] | 1.60 ± 0.33 µg/mL (≈ 5.55 µM) | 20.00 ± 0.58 µg/mL (≈ 69.4 µM) | — (Without the cytotoxical activity in the concentration of 20 μg/ml) | 18.84 ± 0.60 µg/mL (≈ 65.4 µM) | — (Without the cytotoxical activity in the concentration of 20 μg/ml) | good cytotoxic activities | – | – | – | – | – | – | – |
| COC1(OC)CCC(O)(c2cc(=O)c3c(O)cc(O)cc3o2)CC1 [Compound D, 5,7-dihydroxy-2-(1-hydroxy-4,4-dimethoxy-cyclohexyl)-chromen-4-one] | – | – | – | – | – | – | > 20 µg/mL | > 20 µg/mL | > 20 µg/mL | > 20 µg/mL | > 20 µg/mL | – | – |
| COc1cccc2c1C(=O)c1c(O)c3c(c(O)c1C2=O)C[C@@](O)(C(=O)CO)C[C@@H]3O[C@H]1C[C@H](N)[C@H](O)[C@H](C)O1 [Compound E, Doxorubicin, reference compound] | – | – | – | – | – | – | 0.15 µg/mL (≈ 0.276 µM) | 0.26 ± 0.06 µg/mL (≈ 0.478 µM) | 0.32 ± 0.08 µg/mL (≈ 0.589 µM) | 0.36 ± 0.04 µg/mL (≈ 0.662 µM) | 0.31 ± 0.02 µg/mL (≈ 0.57 µM) | – | – |
| COC1CC(=O)C=CC1(O)c1cc(=O)c2c(O)cc(O)cc2o1 (stereo not drawn) [Compound B, 5′,6′-Dihydro-6′-methoxy-protoapigenone] | 5.88 ± 0.47 µg/mL (≈ 18.5 µM) | 1.74 ± 0.08 µg/mL (≈ 5.47 µM) | 5.92 ± 0.29 µg/mL (≈ 18.6 µM) | 13.30 ± 0.23 µg/mL (≈ 41.8 µM) | 1.30 ± 0.10 µg/mL (≈ 4.08 µM) | good cytotoxic activities | – | – | – | – | – | – | – |
| O=C1C=CC(O)(c2cc(=O)c3c(O)cc(O)cc3o2)C=C1 [Compound A, Protoapigenone] | – | – | – | – | – | good cytotoxic activities | 1.6 ± 0.33 µg/mL (≈ 5.59 µM) | 0.23 ± 0.01 µg/mL (≈ 0.804 µM) | 0.78 ± 0.02 µg/mL (≈ 2.72 µM) | 3.88 ± 0.02 µg/mL (≈ 13.6 µM) | 0.27 ± 0.02 µg/mL (≈ 0.943 µM) | weak cytotoxicity | 7.9 ± 1.3 µg/mL (≈ 27.6 µM) |
